Test results from patent US9868716B2, “Method for preventing and/or treating a subject suffering from asthma” (Hong Kong Baptist University, priority 2014, dated 2018).

Assays:
murine spleen cells = assay: ELISA of cytokines in spleen cells of asthma mice; type: in vivo; settings: spleen cells treated with OVA for 3 days, ELISA (IL-4, IL-5, IL-13, IFNγ); FIG. 2a
Description: (§1) Lymph nodes and spleen of mice were collected. The collected tissues were respectively grinded, counted and cultivated. The cultured tissues were stimulated with PMA and ionomycin for 48 hours. The supernatant and the cells were then collected for analysis. The supernatant was used for examining various cytokines, and the cells were used for measuring expressions of various T cell specific proteins by Western blot.
(§2) To obtain the data in FIG. 2a, murine spleen cells were grinded and treated with OVA for 3 days, and then the supernatants of the cell mixtures were collected for ELISA analysis. […] As shown in FIG. 2b and FIG. 2c, the signal transduction proteins in spleen cells were detected. According to the experimental results, N7 inhibits the phosphorylation of Syk in spleen cells of mice having asthma.

lung tissue = assay: Cytokines in lung tissue of asthma animal models; type: in vivo; settings: asthma model mice; FIG. 7
Description: (§3) Balb/c mice of SPF grade were selected for establishing an asthma animal model. With reference to FIG. 3a, ovalalbumin (OVA) dissolved in PBS with aluminum hydroxide gel was intraperitoneally injected to the mice to trigger systemic allergic responses, i.e. OVA sensitization. Then, atomized OVA was given to stimulate or challenge respiratory tracts of the mice. As such, a control group was prepared. By using the similar approach, treatment groups with an administration of N7 in different concentrations as well as a positive control group with an administration of dexamethasone were established. Also, a further control group of PBS was established by using same volume of PBS to replace OVA and using the PBS to replace the atomized OVA.
Some portions of lung tissue of the animal models were collected to evaluate lung inflammatory status. A portion of the collected lung tissue was isolated to extract RNA, and another portion of the lung tissue was grinded and digested for cytokines measurements.

PBMC of asthma patients = assay: qPCR of cytokines in PBMC of asthma patients; type: cell-based, human; settings: mRNA by qPCR, FIG. 4
Description: Blood samples were collected from normal (healthy) people and people with asthma Peripheral blood mononuclear cells (PBMC) were isolated. By using Ficoll-density method, the effect of Nujiangexanthone A on the release of various cytokines in the isolated PBMCs was measured by qPCR.

Syk [1] = target: T1, Syk (Mus musculus, UniProt P48025); assay: Immunohistochemistry of p-Syk in lung tissues of asthma model mice; type: in vivo; settings: FIG. 3d
Description: as §3
(§4) Symptoms of the mice were recorded during the test. Peripheral blood of the mice was collected before the end of the test so as to measure the release of IgE. Airway lavages were collected and the supernatants thereof were tested to measure the release of various cytokines. Cells were counted after being fixed and stained. The effect of Nujiangexanthone A on different types of immune cells was studied.

[2] = system: Balb/c mice, asthma animal model; assay: OVA asthma animal model; type: in vivo
Description: as §3, §4

Lck = assay: Western blot of Lck phosphorylation in PMA/ionomycin-treated Jurkat cells; type: cell-based, Human; settings: N7 1 hour, PMA and ionomycin 15 minutes, FIG. 5a
Description: (§5) Jurkat T cells were cultured in RPMI1640 containing 10% fetal calf serum, 100 U/ml of penicillin and 100 μg/ml of streptomycin. The cells were passed once every two days with fresh medium. After pretreating the cells with a medicament, PMA and ionomycin were used to treat the cells at different time points. After the treatments, the cells were collected for biomarker measurements.
(§6) Jurkat T cells culture: in a safe range of concentrations, cells were treated with Nujiangexanthone A in corresponding concentrations for 5, 15 and 30 minutes. The samples were collected and lysed. The samples were then separated by 8% gel in SDS-PAGE and transferred to PVDF membrane. The following antibodies were used to analyze the samples: ERK, JNK, p38, IKK, IkBa, NF-kB and so forth. If the compound is found to interfere with the expression and phosphorylation of the target proteins, a corresponding specific inhibitor may be used to conduct a comparative analysis.
(§7) In one test, Jurkat cells were pretreated with N7 and Src family inhibitor PP2 for 1 hour and then co-treated with PMA and ionomycin for 15 minutes. Then, a plurality of proteins of T cells signaling transduction pathways were measured by Western blot.

Zap70 = assay: Western Blot of phosphorylated Zap70 in spleen cells of asthma mice; type: in vivo; settings: FIG. 2b, 2c
Description: as §1, §2

T-bet = assay: Western Blot of T-bet in spleen cells of asthma mice; type: in vivo; settings: FIG. 2b, 2c
Description: as §1, §2

Lyn = assay: Immunoprecipitation of Lyn phosphorylation in IgE/DNP-HSA-stimulated murine mast cells; type: cell-based, mice; settings: murine BMMC, N7 1 hour, then antigen 5 minutes; FIG. 1a
Description: (§8) Bone marrow-derived mast cells (BMMC) of mice were separated from BALB/c murine marrow and were cultured in RPMI1640 liquid containing IL-3, 10% of calf serum, 100 U/ml of penicillin and 100 μg/ml of streptomycin for 6 weeks. Two markers c-kit and FceRI on cell membranes were detected by using flow cytometric analysis. When double-positive cells detected, having both markers, have exceeded 95%, the cultured cells can be used for the experiment.
(§9) Mast cells were pre-treated with IgE overnight, and were washed by PBS thrice. After re-suspended with medium, they were treated with different concentrations of Nujiangexanthone A for 1 hour. Dinitrophenyl human serum albumin (DNP-HSA) was used to treat the cells for 5 minutes. A/G agarose was added into the cell lysates and the mixtures were rotated at a rotator for 1 hour. Antibodies of Syk, Fyn and Lyn were added, and the mixtures were rotated overnight. On the following day, PBS was used to wash the complex of magnetic beads, antibody and protein for 5 times. A Western Blot loading dye was added into the complex and the mixtures were boiled for 5 minutes. […]
(§10) The results of FIG. 1a are obtained by pretreating the antibody-treated mast cells with N7 and Src family inhibitor PP2 for 1 hour and then treating the cells with antigens for 5 minutes. […] The downstream signal pathways of Syk including MAPKs, NF-kB and AP-1 were then analyzed by Western Blot.

GATA3 = assay: Western Blot of GATA3 in spleen cells of asthma mice; type: in vivo; settings: FIG. 2b, 2c
Description: as §1, §2

Fyn [3] = assay: Western blot of Fyn phosphorylation in PMA/ionomycin-treated Jurkat cells; type: cell-based, Human; settings: N7 1 hour, PMA and ionomycin 15 minutes, FIG. 5a
Description: as §5, §6, §7

Fyn [4] = assay: Immunoprecipitation of Fyn phosphorylation in IgE/DNP-HSA-stimulated murine mast cells; type: cell-based, mice; settings: murine BMMC, N7 1 hour, then antigen 5 minutes; FIG. 1a
Description: as §8, §9, §10

Syk [5] = target: T1, Syk; assay: Immunoprecipitation of Syk phosphorylation in IgE/DNP-HSA-stimulated murine mast cells; type: cell-based, mice; settings: murine BMMC, N7 1 hour, then antigen 5 minutes; FIG. 1a
Description: as §8, §9, §10

Murine BMMCs = assay: Activation of murine mast cells (cytokines, degranulation, Ca2+, LTC4); type: cell-based, BALB/c mice; settings: BMMC
Description: Murine BMMCs were isolated from BALB/c murine marrow and were cultured in a RPMI1640 medium containing IL-3, 10% of calf serum, 100 U/ml of penicillin and 100 μg/ml of streptomycin for 6 weeks. Two markers c-kit and FceRI on cell membranes were detected by using flow cytometric analysis. When double-positive cells detected, having both markers, have exceeded 95%, the cultured cells can be used for the experiment.
(§11) IgE mast cells were pretreated with IgE overnight and washed by PBS thrice. After re-suspended with medium, they were treated with different concentrations of Nujiangexanthone A for 1 hour. DNP-HAS or antigen was then used to treat the cells for 6 hours. The supernatants were collected for measurement. The amounts of TNF-α and IL-6 were measured by an ELISA kit.
as §11, with “15 minutes.” for “6 hours.”, “LTC4” for “TNF-α”, “Ca^2+ as well as the degranulation response” for “IL-6”
The amount of b-Hex was measured to evaluate the degranulation response.

[6] = system: downstream signal pathways of Syk including MAPKs, NF-kB and AP-1; assay: Western Blot of downstream signaling pathways of Syk in murine mast cells; type: cell-based, mice; settings: murine BMMC, FIG. 1b
Description: as §8
as §6, with “Cells” for “Jurkat T cells culture: in a safe range of concentrations, cells”, “A (N7)” for “A”, “sodium dodecyl sulfate polyacrylaminde gel electrophoresis (SDS-PAGE)” for “SDS-PAGE”, “polyvinylidene fluoride (PVDF)” for “PVDF”
The results of FIG. 1a are obtained by pretreating the antibody-treated mast cells with N7 and Src family inhibitor PP2 for 1 hour and then treating the cells with antigens for 5 minutes. Phosphorylation of Syk, Fyn and Lyn were then examined by immunoprecipitation. The results of FIG. 1b are obtained by pretreating the antibody-treated mast cells with N7 and Src family inhibitor PP2 for one hour and then treating with antigens for 15 minutes. The downstream signal pathways of Syk including MAPKs, NF-kB and AP-1 were then analyzed by Western Blot.

Syk [7] = assay: Western blot of Syk phosphorylation in PMA/ionomycin-treated Jurkat cells; type: cell-based, Human; settings: N7 1 hour, PMA and ionomycin 15 minutes, FIG. 5a
Description: as §5, §6, §7

Stat6 = assay: Western Blot of phosphorylated Stat6 in spleen cells of asthma mice; type: in vivo; settings: FIG. 2b, 2c
Description: as §1, §2

Syk [8] = target: T1, Syk; assay: Western Blot of phosphorylated Syk in spleen cells of asthma mice; type: in vivo; set-up: from tissue; host or cells: mouse spleen cells; settings: spleen cells of mice having asthma; FIG. 2b, 2c
Description: as §1, §2

[9] = N7 1 hour, DNP-HAS 15 minutes, dose-dependent, FIG. 6
[10] = N7 1 hour, DNP-HAS 6 hours, ELISA, dose-dependent, FIG. 6

T1 sequence (P48025 whole entry): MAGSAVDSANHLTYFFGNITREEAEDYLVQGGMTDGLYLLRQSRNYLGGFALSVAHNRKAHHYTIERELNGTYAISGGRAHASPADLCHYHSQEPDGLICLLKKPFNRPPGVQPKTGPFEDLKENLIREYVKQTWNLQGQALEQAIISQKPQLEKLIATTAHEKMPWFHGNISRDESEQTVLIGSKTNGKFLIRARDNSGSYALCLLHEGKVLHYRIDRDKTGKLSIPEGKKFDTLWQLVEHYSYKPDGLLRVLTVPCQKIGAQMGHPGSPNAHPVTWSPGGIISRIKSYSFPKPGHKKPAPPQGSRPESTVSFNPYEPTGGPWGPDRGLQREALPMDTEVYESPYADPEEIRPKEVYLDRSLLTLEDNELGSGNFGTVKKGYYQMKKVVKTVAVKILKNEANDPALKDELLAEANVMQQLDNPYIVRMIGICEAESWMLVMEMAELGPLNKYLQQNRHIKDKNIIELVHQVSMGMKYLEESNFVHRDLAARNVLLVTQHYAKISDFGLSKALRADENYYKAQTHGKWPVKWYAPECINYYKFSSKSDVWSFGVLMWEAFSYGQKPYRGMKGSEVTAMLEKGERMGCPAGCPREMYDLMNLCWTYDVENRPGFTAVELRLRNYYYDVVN

level of phosphorylated Syk in lung tissues (Syk [1]): inhibits
phosphorylation of Syk (Syk [5]): selectively inhibits
expression of phosphorylated Syk (Syk [8]): inhibits
Structure (SMILES): COc1c(O)c(O)c2c(=O)c3c(CC=C(C)C)c(CC=C(C)C)c(O)c(O)c3oc2c1CC=C(C)C [Nujiangexanthone A]
production of cytokines in spleen tissues (murine spleen cells): inhibits
production of IFNγ in lung tissue (lung tissue): does not affect
production of IL-4 in lung tissue (lung tissue): inhibits
production of IL-5 in lung tissue (lung tissue): inhibits
production of IL-13 in lung tissue (lung tissue): inhibits
production of LTC4 in lung tissue (lung tissue): inhibits
production of PGD2 in lung tissue (lung tissue): inhibits
production of eotaxin in lung tissue (lung tissue): inhibits
expression of IFN′ (PBMC of asthma patients): does not inhibit
production of IL-5 (PBMC of asthma patients): inhibits
production of IL-13 (PBMC of asthma patients): inhibits
production of IL-17 (PBMC of asthma patients): inhibits
production of IgE in serum ([2]; OVA asthma mice, FIG. 3b): effectively inhibits
level of phosphorylated tyrosine in lung tissues ([2]; immunohistochemistry, FIG. 3d): inhibits
infiltrates in peribronchial inflammatory cell ([2]; lung tissues, H&E and PAS, FIG. 3c): decreases
phosphorylation of Lck (Lck): does not affect
expression of phosphorylated Zap70 (Zap70): inhibits
expression of T-bet (T-bet): without altering
phosphorylation of Lyn (Lyn): does not affect
expression of GATA3 (GATA3): inhibits
phosphorylation of Fyn (Fyn [3]): does not affect
phosphorylation of Fyn (Fyn [4]): does not affect
concentration of calcium (Murine BMMCs; [9]): lower
degranulation of mast cells (b-Hex) (Murine BMMCs; [9]): inhibit
production of leukotriene LTC4 (Murine BMMCs; [9]): inhibit
production of IL-6 (Murine BMMCs; [10]): inhibit
production of TNF-α (Murine BMMCs; [10]): inhibit
cytotoxicity (Murine BMMCs; range of concentration used in the activation tests): no cytotoxicity
MAPK signaling pathways ([6]; N7 1 hour, antigen 15 minutes): inhibits
nuclear translocation of p65 ([6]; cytoplasm and nucleus separated): inhibits
production of transcription factors AP-1 (c-Jun+c-fos) [6]: is inhibited
phosphorylation of Syk (Syk [7]): selectively inhibits
expression of phosphorylated Stat6 (Stat6): inhibits
